# “Also recorded” adds a separate entry of the source. Ends that are not written are not given here.
# Assays:
# Format in all cases: in vivo, mouse
# [1] = tested on: C57Bl/6 mice; assay: Intestinal ischemia/reperfusion, mucosal injury score; set-up: key to Injury: + indicates significant difference from Sham treated mice; − indicates not significantly different from C57B1/6 sham treated mice; +/− indicates no significant difference from either C57B1/6 mice subjected to either Sham or IR; details: for IR-induced intestinal mucosal damage (injury score): C57Bl/6 mice, peptide 40 μM i.v. 5 min prior to ischemia, 2 hours reperfusion; for IR-induced intestinal injury: Example 2, peptides administered after reperfusion (15-, 30-, or 60-minutes post-reperfusion)
# Protocol: (§1) C57Bl/6 and Rag-1^−/− mice were subjected to ischemia followed by reperfusion similar to previously described studies (Moses, T. et al., J. Leukoc. Biol. 86:971-980 (2009)). Briefly, ketamine (16 mg/kg) and xylazine (80 mg/kg) were used to anesthetize the mice. Buprenorphine (0.06 mg/kg) was then administered for pain. A midline laparotomy was performed to expose the abdominal cavity of the mice, which were then allowed to equilibrate for 30 min. Body temperature was maintained at 37° C. using a water-circulating heat pad. Placing a warm, saline moistened piece of gauze over the abdominal cavity prevented peritoneal desiccation. […] Ischemia was noted by the intestine changing from a pink color to a gray color. After 30 min of ischemia, the clamp was removed and the intestines were allowed to reperfuse for 5, 10, 15, or 120 min. […] Mice treated with the various β2-GPI peptides underwent the same procedure with i.v. administration of the peptides (40 μM) 5 min prior to artery occlusion. Peptides 296, 305, and 296Cys to Ser were dissolved in N. Saline (0.9% NaCl) and injected i.v. in 100-μL volumes. Peptides 100 and 181 were dissolved in DMSO prior to diluting 1/100 in N. Saline. Additional mice received peptides prior to Sham treatment.
# Immediately after euthanasia, a 2-cm mid jejunum tissue section was immediately fixed in 10% buffered formalin, embedded in paraffin, and 8 μm sections were cut transversely and hematoxylin and eosin (H&E) stained. Mucosal injury was graded on a six-tiered scale, as described previously (Fleming, S. D. et al., J. Immunol. 169:2126-2133 (2002)). Briefly, the average damage score of the intestinal section (75-150 villi) was determined after grading each villus. […] Photomicrographs were obtained from H&E stained slides using a 20×, 0.5 Plan Fluor objective on a Nikon 80i microscope and images acquired at room temperature using a Nikon DS-5M camera with DS-L2 software.
# Ischemia/reperfusion was performed on ketamine/xylazine anesthetized mice as described in Example 1 above. After 2 hours of reperfusion, the mice were euthanized and sera, liver, spleen, and 2 cm sections of the small intestine, approximately 10 cm distal to the gastroduodenal junction, were collected for histological and other analyses. Mice treated with the various β2-GPI peptides underwent the same procedure with i.v. administration of the peptides. Most studies assumed 2 mL total blood volume in a mouse and administered peptides to a final concentration of 40 μM at 5 min prior to ischemia. Dose response studies administered 1-40 μM peptide at 5 min prior to ischemia and time course studies administered 40 μM peptide at 5 min prior to ischemia, and at 15-, 30- or 60-min post-ischemia (i.e., during reperfusion).
# After euthanasia, tissue sections were fixed and stained following the procedures outlined in Example 1. Mucosal injury (SMI) was also graded on a six-tiered scale, as described in Example 1.
# [2] = tested on: CD31 (PECAM-1); assay: Intestinal IR, CD31 immunohistochemistry; set-up: key to CD31 Deposition: + indicates significant difference from Sham treated mice; − indicates not significantly different from C57B1/6 sham treated mice; +/− indicates no significant difference from either C57B1/6 mice subjected to either Sham or IR; details: for CD31 Deposition: C57Bl/6 mice subjected to IR, peptide 40 μM i.v. 5 min prior to artery occlusion; for expression of adhesion molecule CD31 after IR: C57Bl/6 mice, peptide prior to IR
# Protocol: as §1
# (§2) After euthanasia, an additional 2-cm intestinal section from each mouse was immediately snap frozen in O.C.T. freezing medium and 8 μm sections were placed on slides for immunohistochemistry. The C3 deposition and F4/80 expression on the tissue sections were detected by staining with a purified rat-anti-mouse C3 (Hycult Biotechnologies; Plymouth Meeting, Pa.) or F4/80 (eBioscience; San Diego, Calif.) antibody followed by a Texas-red conjugated donkey-anti-rat IgG secondary antibody (Jackson Immunoresearch). CD31 (PECAM-1) and CD106 (VCAM-1) were detected by FITC conjugated rat anti-mouse CD31 or CD106 (Biolegend; San Diego, Calif.) antibodies. Each experiment contained serial sections stained with the appropriate isotype control antibodies. All slides were mounted with ProLong Gold (Invitrogen). Images were obtained at room temperature using a Nikon Eclipse 80i microscope equipped with a CoolSnap CF camera (Photometrics) and analyzed using Metavue software (Molecular Devices). The fluorescence was semi-quantitated using Image J software (NIH) using the fluorescent area fraction after setting threshold for each experiment. The average of the isotype control was subtracted from each photo.
# [3] = tested on: F4/80; assay: Intestinal IR, F4/80 macrophage marker immunohistochemistry; set-up: key to F4/80 Deposition: + indicates significant difference from Sham treated mice; − indicates not significantly different from C57B1/6 sham treated mice; +/− indicates no significant difference from either C57B1/6 mice subjected to either Sham or IR; details: for F4/80 Deposition: C57Bl/6 mice subjected to IR, peptide 40 μM i.v. 5 min prior to artery occlusion; for expression of the mature macrophage marker (F4/80) after IR: C57Bl/6 mice, peptide prior to IR
# Protocol: as §1, §2
# [4] = tested on: IL-12; assay: Intestinal IR, ex vivo IL-12 generation; set-up: key to IL-12p40 Induction: + indicates significant difference from Sham treated mice; − indicates not significantly different from C57B1/6 sham treated mice; +/− indicates no significant difference from either C57B1/6 mice subjected to either Sham or IR; details: for IL-12p40 Induction: C57Bl/6 mice subjected to IR, peptide 40 μM i.v. 5 min prior to artery occlusion; for IR induced IL-12 production: C57Bl/6 mice, peptide prior to IR
# Protocol: as §1
# (§3) Ex vivo generation of eicosanoids by mid-jejunal tissue was determined. Immediately after collection, a 2-cm intestinal section from each mouse was minced, washed, resuspended in 37° C. oxygenated Tyrode's buffer (Sigma-Aldrich; St. Louis, Mo.), incubated at 37° C. for 20 minutes, and the supernatant collected. PGE2 and LTB4 concentrations were determined using enzyme immunoassay kits (Cayman Chemical; Ann Arbor, Mich.). IL-6 and IL-12 concentrations were determined using a Milliplex MAP immunoassay kit (Millipore) and read on a Milliplex Analyzer (Millipore). All eicosanoid and cytokine concentrations were standardized to the total tissue protein content.
# (§4) Total peroxidase, LTB4, PGE2, IL-6, IL-12p40, and IL-12p70 concentrations were determined using the procedures described in Example 1.
# [5] = tested on: LTB4; assay: Intestinal IR, ex vivo LTB4 generation; set-up: key to LTB4 Production: + indicates significant difference from Sham treated mice; − indicates not significantly different from C57B1/6 sham treated mice; +/− indicates no significant difference from either C57B1/6 mice subjected to either Sham or IR; details: for LTB4 Production: C57Bl/6 mice subjected to IR, peptide 40 μM i.v. 5 min prior to artery occlusion; for IR-induced intestinal LTB4 production: C57Bl/6 mice, peptide 40 μM prior to IR
# Protocol: as §1, §3, §4
# [6] = C57Bl/6 mice subjected to IR, peptide 40 μM i.v. 5 min prior to artery occlusion
# [7] = 10 μM peptide 5 min prior to IR
# [8] = administered at 60 min post-reperfusion
# [9] = administered at either 5- or 15-min post-reperfusion, 2-hour assay
# [10] = treatment at both 30 min and 60 min post-reperfusion
Substance,"Injury [1, 6]",IR-induced intestinal mucosal damage (injury score) [1],CD31 Deposition [2],expression of adhesion molecule CD31 after IR [2],F4/80 Deposition [3],expression of the mature macrophage marker (F4/80) after IR [3],IL-12p40 Induction [4],IR induced IL-12 production [4],LTB4 Production [5],IR-induced intestinal LTB4 production [5],intestinal damage ([1]; 4 μM peptide 5 min prior to IR),"Injury [1, 7]",IR-induced intestinal mucosal damage (injury score) ([1]; listed as 296c-s),IR-induced intestinal injury [1],"intestinal injury [1, 8]","intestinal injury [1, 9]","intestinal injury [1, 10]"
H-IHFYCKNKEKKCSYTVEAHCRDGTI-OH (cysteine pairing not given here) [peptide 296],−,attenuated mucosal damage,−,inhibited,−,reduced macrophage to Sham levels,−,attenuated; also recorded: inhibit,−,attenuated; also recorded: blocked,,,,,,,
H-IHFYSKNKEKKSSYTVEAHSRDGTI-OH [peptide 296Cys-Ser],−,attenuated mucosal damage; also recorded: confirmed to attenuate injury,−,inhibited,−,reduced macrophage to Sham levels,−,attenuated; also recorded: inhibit,−,attenuated; also recorded: blocked,attenuated,optimally attenuated,attenuate actual epithelial injury more effectively,effective for attenuating,attenuated,effective in preventing intestinal injury,significantly decreased
"H-IPSCFKEHSSLAFWKTDASELTPC-NH2 (cysteine pairing not given here) [peptide 322, 18]",+,IR-induced intestinal damage similar to untreated mice,+,,+,increased in response to IR,+,did not inhibit,+,sustained inflammation similar to untreated mice,,,,,,,
"H-KKCSYTVEAHCRDGTIEIPSCFKEHS-OH (cysteine pairing not given here) [peptide 305, 10]",−,attenuated mucosal damage,+,inhibited,−,reduced macrophage to Sham levels,−,attenuated; also recorded: inhibited,+,did not attenuate,,optimally attenuated,,effective for attenuating,attenuated,effective in preventing intestinal injury,significantly decreased
"H-KNISFACNPGFFLNG-NH2 [peptide 100, 16, reference compound]",+,IR-induced intestinal damage similar to untreated mice,+,significantly different from both Sham and IR treated mice,+,reduced macrophage to Sham levels,+/−,,+,sustained inflammation similar to untreated mice,,,,,,,

# — patent US8895502B2, “β2-glycoprotein I peptide inhibitors” (Kansas State University Research Foundation, priority 2010, dated 2014)
